From US20120178738A1, “DIBENZO [B,F] [1,4]OXAZAPINE COMPOUNDS” (ARYX THERAPEUTICS, INC., priority 2007, published 2012)

Assays:
[1] = target: T1, human 5HT7 receptors (Homo sapiens, UniProt P34969); test: h5-HT7 receptor radioligand binding ([3H]5-CT); conditions: pKi reported on a scale of 1 through 5; read-out: 5HT7 (pKi) (converted)
T1 construct: expressed in transfected cells; host or cells: Chinese hamster ovary cells (membranes)
Description: (§1) Consistent with standard competition radioligand binding assays, the methodology was based on displacement of radioligand from tissues (or cell lines) bearing the receptor of interest (Cheng, Y. and Prusoff, W. H. (1973). Biochem. Pharmacol. 22, 3099-3108). The measurements were based on the binding of a single concentration of radiolabeled ligand in the presence of various concentrations of unlabeled ligand.
(§2) Tissues (or cellular plasma membrane fractions) were incubated in the presence of radioligand at equilibrium and in the presence of a range of concentrations of the test compounds (which were non-radiolabeled), and the displaced radioligand was separated from the membranes by filtration. Nonspecific binding was assessed by measuring displacement of the radioligand in the presence of a compound known to block binding of the radioligand to the receptor. Finally, the concentration-response relationship for radioligand displacement (corrected for non-specific binding) was used to assess binding of the test compound to the receptor.

[2] = target: T2, human 5HT1A receptors (Homo sapiens, UniProt P08908); test: h5-HT1A receptor radioligand binding ([3H]8OH-DPAT); conditions: pKi reported on a scale of 1 through 5
T2 construct: expressed in transfected cells; host or cells: Chinese hamster ovary cells (membranes)
T2 sequence (P08908 1-422): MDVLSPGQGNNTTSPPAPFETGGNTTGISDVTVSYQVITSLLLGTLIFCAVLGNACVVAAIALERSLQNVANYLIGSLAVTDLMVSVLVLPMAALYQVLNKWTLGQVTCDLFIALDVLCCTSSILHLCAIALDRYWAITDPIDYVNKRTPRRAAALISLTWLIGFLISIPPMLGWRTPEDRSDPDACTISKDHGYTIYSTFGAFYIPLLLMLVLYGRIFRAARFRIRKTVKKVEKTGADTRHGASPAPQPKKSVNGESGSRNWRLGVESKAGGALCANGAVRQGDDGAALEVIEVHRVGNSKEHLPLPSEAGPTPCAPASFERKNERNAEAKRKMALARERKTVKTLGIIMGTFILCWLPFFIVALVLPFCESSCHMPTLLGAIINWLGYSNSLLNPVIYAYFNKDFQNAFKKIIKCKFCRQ
In short: (§3)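 Test compounds compete with a single concentration of radioligand for receptor sites on tissue or membrane fractions under equilibrium incubation. Filtration separates displaced ligand, and nonspecific binding is set with a known receptor blocker.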

[3] = target: T3, human 5HT2C receptors (Homo sapiens, UniProt P28335); test: h5-HT2C receptor radioligand binding ([3H]Mesulergine); conditions: pKi reported on a scale of 1 through 5
T3 construct: expressed in transfected cells; host or cells: human embryo kidney cells (membranes)
T3 sequence (P28335 33-458): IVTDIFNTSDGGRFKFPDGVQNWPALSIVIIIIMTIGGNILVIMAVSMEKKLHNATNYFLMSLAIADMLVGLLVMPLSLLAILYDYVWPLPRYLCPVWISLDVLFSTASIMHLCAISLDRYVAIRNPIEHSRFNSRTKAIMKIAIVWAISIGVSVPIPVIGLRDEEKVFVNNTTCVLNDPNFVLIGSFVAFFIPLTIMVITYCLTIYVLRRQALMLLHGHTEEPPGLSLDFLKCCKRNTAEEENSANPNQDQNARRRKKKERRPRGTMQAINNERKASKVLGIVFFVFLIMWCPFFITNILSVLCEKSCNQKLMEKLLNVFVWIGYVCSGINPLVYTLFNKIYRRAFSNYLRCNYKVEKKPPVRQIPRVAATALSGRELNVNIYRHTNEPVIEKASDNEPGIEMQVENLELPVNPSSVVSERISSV
In short: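 Competition binding: membranes incubated to equilibrium with a single concentration of [3H]mesulergine and a range of unlabeled test compound concentrations, then filtered. Nonspecific binding defined with a known receptor blocker; displacement concentration-response, corrected for nonspecific binding, gave the affinity measure.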

[4] = target: T4, human M3 receptors (Homo sapiens, UniProt P20309); test: hM3 receptor radioligand binding ([3H]NMS); conditions: pKi reported on a scale of 1 through 5; read-out: M3 (pKi) (converted)
T4 construct: expressed in transfected cells; host or cells: Chinese hamster ovary cells (membranes)
Description: as §1, §2

[5] = target: T5, human M1 receptors (Homo sapiens, UniProt P11229); test: hM1 receptor radioligand binding ([3H]NMS); conditions: pKi reported on a scale of 1 through 5
T5 construct: expressed in transfected cells; host or cells: Chinese hamster ovary cells (membranes)
T5 sequence (P11229 1-460): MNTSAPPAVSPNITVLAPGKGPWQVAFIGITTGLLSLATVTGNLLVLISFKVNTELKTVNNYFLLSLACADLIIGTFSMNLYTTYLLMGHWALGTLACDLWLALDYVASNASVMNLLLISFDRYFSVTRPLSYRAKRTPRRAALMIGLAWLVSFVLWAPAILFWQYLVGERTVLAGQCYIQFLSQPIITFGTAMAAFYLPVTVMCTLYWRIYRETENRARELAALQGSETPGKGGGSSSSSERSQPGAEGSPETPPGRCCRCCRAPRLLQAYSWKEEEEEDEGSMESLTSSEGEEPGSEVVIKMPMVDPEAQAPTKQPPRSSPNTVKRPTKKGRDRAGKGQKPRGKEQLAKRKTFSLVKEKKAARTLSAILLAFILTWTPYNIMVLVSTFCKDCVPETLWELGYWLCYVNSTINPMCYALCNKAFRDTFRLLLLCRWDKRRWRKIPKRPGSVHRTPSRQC
In short: as §3

[6] = target: T6, 5-HT2A receptor (Rattus norvegicus, UniProt P14842); test: cell-based; conditions: read-out: 5HT2A (pKb) (converted)
T6 construct: Eight strips of tissue (0.5 cm long) were cut. and were mounted in 10 ml organ baths; tissue Charles River Laboratories; host or cells: rat aorta strips, endothelium removed
In short: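 Endothelium-denuded aortic strips from male Sprague Dawley rats held at 37° C in carbogen-aerated Krebs, pH 7.4, under 2 g resting tension. Contraction recorded as tension change, expressed as % of maximal 5-HT response; agonist EC50 from Parker–Waud fit, antagonist pKB/pA2 from concentration-ratios.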

[7] = target: T7, human D2s dopamine receptors (Homo sapiens, UniProt P14416); test: hD2S receptor radioligand binding ([3H]spiperone); conditions: pKi reported on a scale of 1 through 5
T7 construct: expressed in transfected cells; host or cells: Chinese hamster ovary cells (membranes)
In short: as §3

[8] = target: T8, human H1 receptors (Homo sapiens, UniProt P35367); test: hH1 receptor radioligand binding ([3H]Pyrilamine); conditions: pKi reported on a scale of 1 through 5
T8 construct: expressed in transfected cells; host or cells: Chinese hamster ovary cells (membranes)
In short: as §3

[9] = target: T9, human D2L dopamine receptors (Homo sapiens, UniProt P14416); test: hD2L receptor radioligand binding ([3H]spiperone); conditions: pKi reported on a scale of 1 through 5; read-out: D2L (pKi) (converted)
T9 construct: expressed in transfected cells; host or cells: insect Sf9 cells (membranes)
Description: as §1, §2

T7 sequence (P14416 1-414 isoform P14416-2): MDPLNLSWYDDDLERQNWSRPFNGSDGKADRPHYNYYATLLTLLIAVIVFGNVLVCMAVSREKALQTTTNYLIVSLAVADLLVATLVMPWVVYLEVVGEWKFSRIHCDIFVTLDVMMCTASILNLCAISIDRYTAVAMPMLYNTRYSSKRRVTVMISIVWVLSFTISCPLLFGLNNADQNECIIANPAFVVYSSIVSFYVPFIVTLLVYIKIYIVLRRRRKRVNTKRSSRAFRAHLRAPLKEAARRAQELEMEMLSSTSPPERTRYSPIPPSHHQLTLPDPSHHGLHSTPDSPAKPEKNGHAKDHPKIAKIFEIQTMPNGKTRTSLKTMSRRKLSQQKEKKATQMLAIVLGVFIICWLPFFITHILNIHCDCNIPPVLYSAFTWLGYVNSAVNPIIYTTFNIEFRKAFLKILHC
T4 sequence (P20309 whole entry): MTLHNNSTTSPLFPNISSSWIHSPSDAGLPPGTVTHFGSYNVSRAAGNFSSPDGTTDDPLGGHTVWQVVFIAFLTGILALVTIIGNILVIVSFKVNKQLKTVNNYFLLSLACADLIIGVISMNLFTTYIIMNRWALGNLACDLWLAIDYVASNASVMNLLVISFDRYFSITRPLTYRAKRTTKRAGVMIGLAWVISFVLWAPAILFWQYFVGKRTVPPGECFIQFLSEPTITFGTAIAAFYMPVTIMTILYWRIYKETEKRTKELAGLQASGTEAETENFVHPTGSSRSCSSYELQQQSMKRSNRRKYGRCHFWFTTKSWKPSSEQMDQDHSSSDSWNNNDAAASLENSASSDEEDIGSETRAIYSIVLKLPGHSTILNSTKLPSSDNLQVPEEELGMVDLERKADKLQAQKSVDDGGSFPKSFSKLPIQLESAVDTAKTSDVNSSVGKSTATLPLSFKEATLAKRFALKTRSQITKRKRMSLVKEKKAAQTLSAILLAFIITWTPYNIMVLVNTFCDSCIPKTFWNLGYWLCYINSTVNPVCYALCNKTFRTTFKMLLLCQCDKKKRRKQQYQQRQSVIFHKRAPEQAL
T9 sequence (P14416 whole entry): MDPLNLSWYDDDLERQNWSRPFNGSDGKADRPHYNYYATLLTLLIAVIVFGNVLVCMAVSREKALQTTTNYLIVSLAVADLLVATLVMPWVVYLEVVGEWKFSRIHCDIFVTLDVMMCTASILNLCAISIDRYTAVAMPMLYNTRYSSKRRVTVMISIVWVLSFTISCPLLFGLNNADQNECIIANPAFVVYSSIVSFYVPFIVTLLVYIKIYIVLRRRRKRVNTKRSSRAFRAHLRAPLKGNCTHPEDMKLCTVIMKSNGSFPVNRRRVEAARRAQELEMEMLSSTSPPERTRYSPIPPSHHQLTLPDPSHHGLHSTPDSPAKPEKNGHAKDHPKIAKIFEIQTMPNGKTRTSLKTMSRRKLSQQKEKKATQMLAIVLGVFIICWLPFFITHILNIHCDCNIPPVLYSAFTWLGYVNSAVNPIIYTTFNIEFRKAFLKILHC
T8 sequence (P35367 whole entry): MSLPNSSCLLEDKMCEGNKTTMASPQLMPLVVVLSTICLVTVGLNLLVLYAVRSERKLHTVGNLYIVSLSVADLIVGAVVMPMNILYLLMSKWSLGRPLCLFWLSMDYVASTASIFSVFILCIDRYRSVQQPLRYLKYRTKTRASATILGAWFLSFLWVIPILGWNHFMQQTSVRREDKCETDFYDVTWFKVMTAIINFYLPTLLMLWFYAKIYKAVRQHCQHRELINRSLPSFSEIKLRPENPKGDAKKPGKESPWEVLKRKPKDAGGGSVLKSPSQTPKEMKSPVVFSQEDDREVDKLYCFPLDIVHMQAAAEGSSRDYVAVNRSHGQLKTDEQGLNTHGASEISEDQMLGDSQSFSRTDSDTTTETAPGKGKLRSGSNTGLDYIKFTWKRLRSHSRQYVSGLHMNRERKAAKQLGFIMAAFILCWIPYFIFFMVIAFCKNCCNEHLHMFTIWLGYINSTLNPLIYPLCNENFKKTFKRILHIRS
T1 sequence (P34969 whole entry): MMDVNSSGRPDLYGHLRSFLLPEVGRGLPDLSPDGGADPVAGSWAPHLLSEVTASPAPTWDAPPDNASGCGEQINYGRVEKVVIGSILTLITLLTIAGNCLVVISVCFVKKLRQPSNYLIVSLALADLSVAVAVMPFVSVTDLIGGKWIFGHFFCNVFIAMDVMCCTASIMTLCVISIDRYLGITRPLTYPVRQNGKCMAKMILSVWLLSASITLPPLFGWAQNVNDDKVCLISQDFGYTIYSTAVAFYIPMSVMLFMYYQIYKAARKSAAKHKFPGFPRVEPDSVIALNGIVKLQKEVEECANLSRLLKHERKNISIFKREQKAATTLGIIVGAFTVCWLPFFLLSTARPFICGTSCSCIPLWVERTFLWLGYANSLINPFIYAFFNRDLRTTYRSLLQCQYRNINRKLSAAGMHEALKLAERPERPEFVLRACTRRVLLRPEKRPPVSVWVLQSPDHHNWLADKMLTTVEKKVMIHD
T6 sequence (P14842 whole entry): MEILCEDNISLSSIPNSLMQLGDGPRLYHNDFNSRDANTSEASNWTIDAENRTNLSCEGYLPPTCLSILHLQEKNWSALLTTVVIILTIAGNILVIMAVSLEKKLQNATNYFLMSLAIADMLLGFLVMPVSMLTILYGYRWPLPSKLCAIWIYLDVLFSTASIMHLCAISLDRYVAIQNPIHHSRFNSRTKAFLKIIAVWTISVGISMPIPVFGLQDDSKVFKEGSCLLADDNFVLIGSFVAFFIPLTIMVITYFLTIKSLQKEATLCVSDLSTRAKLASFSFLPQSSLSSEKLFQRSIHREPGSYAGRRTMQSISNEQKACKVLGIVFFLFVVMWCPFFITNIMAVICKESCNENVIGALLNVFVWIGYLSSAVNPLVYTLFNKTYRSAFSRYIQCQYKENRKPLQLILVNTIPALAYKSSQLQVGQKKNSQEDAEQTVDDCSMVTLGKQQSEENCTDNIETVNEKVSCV

With `COc1ccc(NC(=O)C[C@H]2CN(C3=Nc4cc(Cl)ccc4Oc4ccccc43)CCN2)cn1` [FP, (S,E)-2-(4-(8-chlorodibenzo[b,f][1,4]oxazepin-11-yl)piperazin-2-yl)-N-(6-methoxypyridin-3-yl)acetamide] the Ki [1] was 1580 to 3890 nM, the Ki [2] was ≤ 9.77 nM and the Ki [3] was 10 to 97.7 nM. For the same compound, the Ki [4] was > 10000 nM, the Ki [5] was 5010 to 9770 nM and the Kb [6] was 10 to 30.9 nM. It also gave a Ki [7] of 631 to 2450 nM, a Ki [8] of 10 to 97.7 nM and a Ki [9] of 631 to 2450 nM.
In the case of `COCCNC(=O)C[C@H]1CN(C2=Nc3cc(Cl)ccc3Oc3ccccc32)CCN1` [FC, (S,E)-2-(4-(8-chlorodibenzo[b,f][1,4]oxazepin-11-yl)piperazin-2-yl)-N-(2-methoxyethyl)acetamide], the Ki [1] is reported as 631 to 1550 nM, the Ki [2] is reported as 10 to 97.7 nM and the Ki [3] is reported as 10 to 97.7 nM. The Ki [4] was > 10000 nM, the Ki [5] was > 10000 nM and the Kb [6] was 3.16 to 9.77 nM. For the same compound, the Ki [7] was 631 to 2450 nM, the Ki [8] was 10 to 97.7 nM and the Ki [9] was 631 to 2450 nM.
In the case of `C[C@H](CC(C)(C)O)OC(=O)C[C@H]1CN(C2=Nc3cc(Cl)ccc3Oc3ccccc32)CCN1` [Compound ED, (R)-4-hydroxy-4-methylpentan-2-yl 2-((S)-4-((E)-8-chlorodibenzo[b,f][1,4]oxazepin-11-yl)piperazin-2-yl)acetate], the Ki [1] is reported as 631 to 1550 nM, the Ki [2] is reported as 10 to 97.7 nM and the Ki [3] is reported as < 9.77 nM. The Ki [4] was > 10000 nM, the Ki [5] was 5010 to 9770 nM and the Kb [6] was 3.16 to 9.77 nM. It also gave a Ki [7] of 631 to 2450 nM, a Ki [8] of 10 to 97.7 nM and a Ki [9] of 631 to 2450 nM.
In the case of `COC(=O)C[C@H]1CN(C2=Nc3cc(Cl)ccc3Oc3ccccc32)CCN1C` [DW, (S,E)-methyl 2-(4-(8-chlorodibenzo[b,f][1,4]oxazepin-11-yl)-1-methylpiperazin-2-yl)acetate], the Ki [1] is reported as 3980 to 9770 nM, the Ki [2] is reported as 1000 to 9770 nM and the Ki [3] is reported as 100 to 977 nM. For the same compound, the Ki [4] was > 10000 nM, the Ki [5] was ≤ 1230 nM and the Kb [6] was 31.6 to 97.7 nM. For the same compound, the Ki [7] was > 10000 nM, the Ki [8] was 100 to 977 nM and the Ki [9] was 2510 to 9770 nM.
In the case of `O=C(C[C@H]1CN(C2=Nc3cc(Cl)ccc3Oc3ccccc32)CCN1)NCC(F)F` [FQ, (S,E)-2-(4-(8-chlorodibenzo[b,f][1,4]oxazepin-11-yl)piperazin-2-yl)-N-(2,2-difluoroethyl)acetamide], the Ki [1] is reported as 631 to 1550 nM, the Ki [2] is reported as 10 to 97.7 nM and the Ki [3] is reported as 10 to 97.7 nM. For the same compound, the Ki [4] was > 10000 nM, the Ki [5] was 5010 to 9770 nM and the Kb [6] was 10 to 30.9 nM. The Ki [7] was 631 to 2450 nM, the Ki [8] was 10 to 97.7 nM and the Ki [9] was 631 to 2450 nM.
`CC(C)(CO)NC(=O)C[C@H]1CN(C2=Nc3cc(Cl)ccc3Oc3ccccc32)CCN1` [EY, (S,E)-2-(4-(8-chlorodibenzo[b,f][1,4]oxazepin-11-yl)piperazin-2-yl)-N-(1-hydroxy-2-methylpropan-2-yl)acetamide] showed a Ki [1] of 631 to 1550 nM, a Ki [2] of 10 to 97.7 nM and a Ki [3] of 10 to 97.7 nM. The Ki [4] was > 10000 nM, the Ki [5] was > 10000 nM and the Kb [6] was 3.16 to 9.77 nM. The Ki [7] was 631 to 2450 nM, the Ki [8] was 10 to 97.7 nM and the Ki [9] was 631 to 2450 nM.
